Here are results for one cell line from the supplement of paper PMC10307832.

What all share (test): relative viability (nuclei count vs DMSO), 5 days (fraction); higher = more cells survive
Compound in test [1]: COc1cc2nc(N3CCCN(C)CC3)nc(NC3CCN(Cc4ccccc4)CC3)c2cc1OC + Nc1ncn([C@H]2C[C@H](O)[C@@H](CO)O2)c(=O)n1 [Decitabine] (partner 2 µM)
A digest of the protocol: (§1)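 A single step with final 0.05% Triton X-100, 1% formaldehyde and 1 ug/ml Hoechst fixed the cells and stained nuclei 5 days after treatment. Lung cancer cell lines in 1536-well plates had been treated by pin tool the day after seeding with one drug alone or a fixed anchor-drug dose plus five library-drug doses (not always all listed) in √10 steps, and nuclei were counted on 4× images. Relative viability is the ratio of nuclei in treated wells to nuclei in vehicle wells, taken as the median of duplicate plates.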

Compound in the test “AZD6482 + Lapatinib”: Cc1cc([C@@H](C)Nc2ccccc2C(=O)O)c2nc(N3CCOCC3)cc(=O)n2c1 [AZD6482] + CS(=O)(=O)CCNCc1ccc(-c2ccc3ncnc(Nc4ccc(OCc5cccc(F)c5)c(Cl)c4)c3c2)o1 [Lapatinib] (partner 2 µM)
A digest of the protocol: as §1

Compound in test [2]: COc1cc2nc(N3CCCN(C)CC3)nc(NC3CCN(Cc4ccccc4)CC3)c2cc1OC + O=C(CCCCCCC(=O)Nc1ccccc1)NO [Vorinostat] (partner 1 µM)
A digest of the protocol:
as §1

Compound in test [3]: COc1cc2nc(N3CCCN(C)CC3)nc(NC3CCN(Cc4ccccc4)CC3)c2cc1OC + Cc1nc(NC(=O)N2CCC[C@H]2C(N)=O)sc1-c1ccnc(C(C)(C)C(F)(F)F)c1 [Alpelisib] (partner 2 µM)
A digest of the protocol:
as §1

Consider UMC-11, for which the relative viability in test [1] (first compound 0.2 µM) was 0.598; in test [1] (first compound 0.6325 µM) it was 0.577; in test [1] (first compound 2 µM), 0.597; in test [1] (first compound 6.325 µM), 0.451; in the test with AZD6482 + Lapatinib (first compound 0.08 µM), 0.875; with AZD6482 + Lapatinib (first compound 0.253 µM) it was 0.902. Moreover, the relative viability came out at 1.03 with AZD6482 + Lapatinib (first compound 0.8 µM); 0.602 with AZD6482 + Lapatinib (first compound 2.53 µM); 1.34 with AZD6482 + Lapatinib (first compound 8 µM); 0.361 in test [2] (first compound 0.2 µM); 0.453 in test [2] (first compound 0.6325 µM); 0.431 in test [2] (first compound 2 µM). Further, the relative viability is 0.317 in test [2] (first compound 6.325 µM); 0.953 in test [3] (first compound 0.2 µM); 0.973 in test [3] (first compound 0.6325 µM); 1.15 in test [3] (first compound 2 µM); 1.01 in test [3] (first compound 6.325 µM).
